Data set [1] is classed as in vitro ADME. From the text: Resistance to the In Vitro Simulated Gastric Ambient The tripeptide is resistant to the in vitro simulated gastric ambient. In this study the gastric simulated juice USP XXI (HCl+pepsin) has been used at 37 C for 5 hrs.
The test system of data set [2] is mice. The experiment in a line: Acute toxicity in mice. The format is in vivo. To be noted: up to a dose of 1000 mg/Kg i.m.
The test system of the next data set is rats. The experiment in a line: Acute toxicity in rats. The format is in vivo. To be noted: up to a dose of 1000 mg/Kg i.m.
For another data set, the system named is rabbits. The experiment in a line: Tolerability in rabbits. Format: in vivo. To be noted: 100 mg/Kg i.v.
Data set [3] concerns mice. The experiment in a line: Tolerability in mice. The format is in vivo. The settings on record: 100 mg/Kg i.p.
A short description of data set [4]: Pentobarbital-induced sleeping time. Format: in vivo. To be noted: 100 mg/Kg.
In the next data set the test system is guinea-pig. To be noted: in vivo, 100 mg/kg.

The structures appear in SMILES notation. Peptide text beside a SMILES is read from it.

As for `N=C(N)NCCC[C@H](N)C(=O)N[C@@H](CCCCN)C(=O)N[C@@H](CCC(=O)O)C(=O)O` [ELS1, Arg-Lys-Glu] (H-Arg-Lys-Glu-OH), the “resistance to the in vitro simulated gastric ambient” value in data set [1] is on record as “resistant”. The acute toxicity result in the data set on mice [2] and with rats was “totally devoid of toxic effects” throughout. The “tolerability: hemodynamic modification and behavioral effect” value was “doesn't cause any hemodynamic modification and behavioral effect” in the data set on rabbits; “doesn't cause any hemodynamic modification and behavioral effect” with mice [3]. Further, the pentobarbital-induced sleeping time result in data set [4] is “only a slight increase”. Moreover, in the data set with guinea-pig, the sensitization phenomena result is “doesn't induce any sensitization phenomena”.

The values are drawn from patent US4874844A, “Tripeptide with immunostimulating activity” (Ellem Industria Farmaceutica S.p.A., priority 1986, dated 1989).
